From patent publication US20200190592A1, “PME-1 AS A BIOMARKER TO PREDICT AND DIAGNOSE AN INCREASED RISK OF ENDOMETRIAL CANCER AND GENE SILENCING OF PME-1 TO INHIBIT EPITHELIAL TO MESENCHYMAL TRANSITION” (Medical Diagnostic Laboratories, L.L.C., priority 2018, published 2020) come the findings set out here.

A value given as a limit tells only on which side of the number the result lay.

The test system of one series is DcR2. In words: Senescence assay (Western for DcR2). Conditions: RL95-2 lysates, GAPDH loading control. The series is classed as cell-based, human. The procedure: We next analyzed cell lysates taken from RL95-2 cells that expressed either empty vector (Control), overexpressed PME-1 (+PME-1) or expressed shRNA against PME-1 (−PME-1) for DcR2 protein.
15 μg of protein was used for western analysis. PME-1 antibody (Santa Cruz) and COXIV (Cell Signaling Technologies) were used for detection of proteins and the blots were developed using chemiluminescence (Pierce ECL Western Blotting Substrate—Thermo Scientific) on the GE ImageQuant LAS 4000. For analysis of Akt, ERK, and β-catenin signaling in tissue culture, western analyses were completed as follows. RL95-2 cells stably infected with lentivirus expressing constructs were selected with puromycin (Invivogen). The cells were incubated with either 50 μM Akt inhibitor (LY 294002, Cell Signaling Technologies) or 40 μM ERK inhibitor (V0126, Cell Signaling Technologies) for 1-2 hours at 37° C. 1.5× Laemelli buffer (0.5 M Tris pH6.8, […], 10% sodium dodecyl sulfate, 100 mM EDTA) was used to prepare cell lysates. 20 μg of protein was used for western analysis. Primary antibodies used were: P-Akt (Ser473), P-Akt (Thr308), pan-Akt, P-ERK (Thr202/204), total ERK (Cell Signaling Technologies), PME-1 (Santa Cruz), phospho-β-catenin (Ser45, Cell Signaling Technologies), phospho-β-catenin (Ser33/37/Thr41, Cell Signaling Technologies), β-catenin (Abcam), DcR2 (Abcam), and GAPDH (Abcam). […]

In a further series the test system is PPME1. In words: qRT-PCR of PPME1 (PME-1) expression in RL95-2 cells. The series is classed as cell-based, human. Conditions: RL95-2, normalized to 18S, vs shSCR. The procedure: In this study, we transfected RL95-2 cells to express empty vector (Control), over-expressing PME-1 (+PME-1) or expressing shRNA against PME-1 (−PME-1) followed by serum starvation for 24 hours. Afterwards, either vehicle or TGF-β treatment was performed at the end of the 24 hours. TGF-β was used to induce cells to initiate the EMT program. Gene expression analysis was conducted using quantitative real-time PCR.
Using RL95-2 endometrial cancer cells, we overexpressed PME-1 (FIG. 21A) or depleted PME-1 with shRNA (FIG. 21B) and confirmed that PME-1 was appropriately expressed.
Total RNA was extracted with Qiagen RNAEasy kit from RL95-2 cells. cDNA was synthesized using 500 ng-1 μg of RNA and SuperScript VILO c-DNA mix (Life Technologies). Taqman probes and PCR-mix were purchased from Life Technologies. All samples were run in triplicates. Results are representative of three independent experiments in which genes of interest were normalized to the house-keeping gene, 18S or GAPDH, where fold-change was calculated using the ddCt method.
Background: Real-time PCR tracks product formation cycle by cycle.

With “shPPME1 no. 2: shRNA targeting PPME1, SEQ ID NO: 2: GCAGCGATTATTAGTAGAGTT, bp 289-309; used for all subsequent experiments (guide GCAGCGATTATTAGTAGAGTT; listed as Homo sapiens)”, the “senescent marker protein DcR2” value in the series with DcR2 was “increase”. The substance further returned a PME-1 knocked down with PPME1 of more than 50%.
